Results on 23 compounds are retold here after patent US10227350B2 (Gilead Sciences, Inc., priority 2016, dated 2019).

This assay addresses PI3Kβ (Homo sapiens (Human), UniProt P42338). Put plainly: TR-FRET enzymatic activity assay, PI3Kβ. The format is biochemical. Particulars: 2× Km ATP, 2 μM PIP2, 30 minutes at 25° C., read-out: IC50-PIP-Beta. As for the experimental part: The compounds of formula (I) were characterized for their enzymatic activity against the PI3K isoforms. The activities were measured using a time-resolved fluorescence resonance energy transfer (TR-FRET) assay. TR-FRET monitored the formation of 3,4,5-inositol triphosphate molecule that competed with fluorescently labeled PIPS for binding to the GRP-1 pleckstrin homology domain protein.
Class I PI3K isoforms were expressed and purified as heterodimeric recombinant proteins. All assay reagents and buffers for the TR-FRET assay were purchased from Millipore. […] The compounds were added to the assay solution and incubated for 30 minutes at 25° C.
On the technique in general: Time-resolved FRET reads energy transfer from a long-lived donor to a nearby acceptor.

Sequence of PI3Kβ (P42338 whole entry, the tested form may be a part, canonical isoform): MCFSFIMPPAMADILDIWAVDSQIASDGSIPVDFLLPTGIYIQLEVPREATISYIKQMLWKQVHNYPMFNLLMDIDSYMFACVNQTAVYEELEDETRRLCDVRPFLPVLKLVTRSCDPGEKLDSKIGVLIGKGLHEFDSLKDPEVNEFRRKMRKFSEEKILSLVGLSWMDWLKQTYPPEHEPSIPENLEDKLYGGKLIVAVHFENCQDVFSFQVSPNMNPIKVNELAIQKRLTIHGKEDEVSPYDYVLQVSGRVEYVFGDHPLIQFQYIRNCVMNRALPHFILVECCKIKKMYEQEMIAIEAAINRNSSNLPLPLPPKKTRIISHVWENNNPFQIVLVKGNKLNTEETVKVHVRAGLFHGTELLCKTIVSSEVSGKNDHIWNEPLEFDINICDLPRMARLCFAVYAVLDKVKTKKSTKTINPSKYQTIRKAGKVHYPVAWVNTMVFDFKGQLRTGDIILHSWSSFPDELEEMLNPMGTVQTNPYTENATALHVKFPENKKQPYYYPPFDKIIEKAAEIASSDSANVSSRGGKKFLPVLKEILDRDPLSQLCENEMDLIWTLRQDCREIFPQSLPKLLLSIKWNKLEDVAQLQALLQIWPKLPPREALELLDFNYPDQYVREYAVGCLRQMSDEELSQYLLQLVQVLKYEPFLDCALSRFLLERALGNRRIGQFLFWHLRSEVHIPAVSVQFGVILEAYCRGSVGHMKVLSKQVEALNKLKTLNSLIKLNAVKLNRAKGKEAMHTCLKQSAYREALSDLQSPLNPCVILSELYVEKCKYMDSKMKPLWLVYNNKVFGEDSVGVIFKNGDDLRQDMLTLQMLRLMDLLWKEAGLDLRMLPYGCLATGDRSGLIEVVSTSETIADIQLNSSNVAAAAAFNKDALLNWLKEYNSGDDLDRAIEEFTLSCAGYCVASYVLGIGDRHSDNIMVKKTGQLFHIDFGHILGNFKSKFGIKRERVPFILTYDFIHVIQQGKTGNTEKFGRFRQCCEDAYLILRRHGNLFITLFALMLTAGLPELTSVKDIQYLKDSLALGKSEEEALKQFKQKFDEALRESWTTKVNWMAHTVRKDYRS
Sequence of PI3Kβ (P27986 whole entry partner, the tested form may be a part, canonical isoform): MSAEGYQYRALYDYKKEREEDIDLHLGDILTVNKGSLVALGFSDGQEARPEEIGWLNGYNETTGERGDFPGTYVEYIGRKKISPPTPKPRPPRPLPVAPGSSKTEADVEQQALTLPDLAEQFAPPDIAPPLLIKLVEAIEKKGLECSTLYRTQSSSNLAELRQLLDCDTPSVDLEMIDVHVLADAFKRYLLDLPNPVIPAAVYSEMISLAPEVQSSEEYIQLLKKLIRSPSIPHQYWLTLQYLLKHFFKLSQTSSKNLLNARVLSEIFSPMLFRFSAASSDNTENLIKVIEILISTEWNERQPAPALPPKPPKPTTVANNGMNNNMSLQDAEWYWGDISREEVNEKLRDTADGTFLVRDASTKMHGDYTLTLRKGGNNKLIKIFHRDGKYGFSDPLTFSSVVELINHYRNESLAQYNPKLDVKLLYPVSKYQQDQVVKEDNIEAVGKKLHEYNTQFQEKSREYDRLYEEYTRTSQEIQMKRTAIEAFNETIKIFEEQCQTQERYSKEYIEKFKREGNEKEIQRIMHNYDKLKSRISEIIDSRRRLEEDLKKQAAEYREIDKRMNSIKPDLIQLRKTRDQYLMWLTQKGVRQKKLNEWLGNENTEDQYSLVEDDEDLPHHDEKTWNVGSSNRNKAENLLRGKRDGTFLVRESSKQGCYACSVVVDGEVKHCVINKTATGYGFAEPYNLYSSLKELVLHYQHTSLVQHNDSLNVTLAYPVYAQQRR

As for `Cc1nc2c(C(N)=O)cc(-c3ncnc4[nH]cnc34)cc2n1-c1ccnc2c(Cl)cccc12` [Example 20, 1-(8-chloroquinolin-4-yl)-2-methyl-6-(9H-purin-6-yl)benzimidazole-4-carboxamide], the IC50 was 1100 nM.

Regarding `Cc1nc2c(-c3nnc[nH]3)cc(-c3ccnc(N)c3F)cc2n1-c1ccnc2c(Cl)ccc(Cl)c12` (single isomer, unassigned) [Example 119, 4-(1-(5,8-dichloroquinolin-4-yl)-2-methyl-4-(4H-1,2,4-triazol-3-yl)-1H-benzo[d]imidazol-6-yl)-3-fluoropyridin-2-amine], the IC50 amounted to 87 nM.

Turning to `CCc1nc2c(-c3nnc[nH]3)cc(-c3ccnc(N)c3)cc2n1-c1ccnc2c(F)ccc(F)c12` [Example 70, 4-[3-(5,8-difluoroquinolin-4-yl)-2-ethyl-7-(4H-1,2,4-triazol-3-yl)benzimidazol-5-yl]pyridin-2-amine], the IC50 worked out at 13 nM.

`Nc1cc(-c2cc(-c3nnc[nH]3)c3nc(C4COC4)n(-c4ccnc5c(Cl)ccc(F)c45)c3c2)ccn1` [Example 68, 4-[3-(8-chloro-5-fluoroquinolin-4-yl)-2-(oxetan-3-yl)-7-(4H-1,2,4-triazol-3-yl)benzimidazol-5-yl]pyridin-2-amine]: the concentration for half-maximal inhibition (IC50) amounted to 35 nM.

For `Cc1nc2c(-c3nnc[nH]3)cc(-c3ccnc(C#N)c3)cc2n1-c1ccnc2cc(F)cc(F)c12` (single isomer, unassigned) [Example 116, 4-(1-(5,7-difluoroquinolin-4-yl)-2-methyl-4-(4H-1,2,4-triazol-3-yl)-1H-benzo[d]imidazol-6-yl)picolinonitrile], the IC50 was determined as 30 nM.

As for `Cc1nc2c(-c3nnc[nH]3)cc(-c3ccnc(N)c3F)cc2n1-c1ccnc2cc(F)cc(F)c12` (single isomer, unassigned) [Example 117], the IC50 was found to be 4 nM.

Take `Cc1nc2c(-c3nnc[nH]3)cc(-c3ccnc(N)c3F)cc2n1-c1ccnc2c(Cl)ccc(F)c12` [Example 83, 4-[3-(8-chloro-5-fluoroquinolin-4-yl)-2-methyl-7-(4H-1,2,4-triazol-3-yl)benzimidazol-5-yl]-3-fluoropyridin-2-amine]: the IC50 was 2 nM.

For `Cc1nc2c(C(N)=O)cc(-c3cc(N)nc(N)n3)cc2n1-c1ccnc2c(Cl)cccc12` [Example 22, 1-(8-chloroquinolin-4-yl)-6-(2,6-diaminopyrimidin-4-yl)-2-methylbenzimidazole-4-carboxamide], the IC50 came out at 1100 nM.

Consider `Cc1nc2c(-c3nnc[nH]3)cc(-c3ccncc3)cc2n1-c1ccnc2cccc(F)c12` [Example 30, 5-fluoro-4-[2-methyl-6-pyridin-4-yl-4-(4H-1,2,4-triazol-3-yl)benzimidazol-1-yl]quinoline], for which the IC50 came to 8 nM.

With `Cc1nnc(-c2cc(-c3ccnc(N)c3)cc3c2nc(C)n3-c2ccnc3c(Cl)ccc(F)c23)[nH]1` [Example 50, 4-[3-(8-chloro-5-fluoroquinolin-4-yl)-2-methyl-7-(5-methyl-4H-1,2,4-triazol-3-yl)benzimidazol-5-yl]pyridin-2-amine], the IC50 amounted to 17 nM.

Consider `Cc1cc(-c2cc(-c3nnc[nH]3)c3nc(C)n(-c4ccnc5c(F)ccc(F)c45)c3c2)cc(N)n1` [Example 90, 4-[3-(5,8-difluoroquinolin-4-yl)-2-methyl-7-(4H-1,2,4-triazol-3-yl)benzimidazol-5-yl]-6-methylpyridin-2-amine], for which the IC50 worked out at 340 nM.

For `CNc1nccc(-c2cc(-c3nnc[nH]3)c3nc(C)n(-c4ccnc5c(F)ccc(F)c45)c3c2)c1F` [Example 77, 4-[3-(5,8-difluoroquinolin-4-yl)-2-methyl-7-(4H-1,2,4-triazol-3-yl)benzimidazol-5-yl]-3-fluoro-N-methylpyridin-2-amine], the half-maximal inhibitory concentration (IC50) is 1400 nM.

As for `Cc1c(-c2cc(-c3nnc[nH]3)c3nc(C)n(-c4ccnc5c(F)ccc(F)c45)c3c2)ccnc1N` [Example 101, 4-[3-(5,8-difluoroquinolin-4-yl)-2-methyl-7-(4H-1,2,4-triazol-3-yl)benzimidazol-5-yl]-3-methylpyridin-2-amine], the IC50 was found to be 2800 nM.

With `Cc1nc2c(-c3nnc[nH]3)cc(-c3ccnc(C#N)c3)cc2n1-c1ccnc2cccc(F)c12` [Example 147, 4-(1-(5-fluoroquinolin-4-yl)-2-methyl-4-(4H-1,2,4-triazol-3-yl)-1H-benzo[d]imidazol-6-yl)picolinonitrile], the IC50 was determined as 4 nM.

`Nc1cc(-c2cc(-c3nnc[nH]3)c3nc(C4CC4)n(-c4ccnc5c(Cl)ccc(F)c45)c3c2)ccn1` [Example 62, 4-[3-(8-chloro-5-fluoroquinolin-4-yl)-2-cyclopropyl-7-(4H-1,2,4-triazol-3-yl)benzimidazol-5-yl]pyridin-2-amine]: the IC50 came to 8 nM.

Consider `Cc1nc2c(-c3nnc[nH]3)cc(-c3ccncc3)cc2n1-c1ccnc2c(Cl)ccc(F)c12` [Example 37, 8-chloro-5-fluoro-4-[2-methyl-6-pyridin-4-yl-4-(4H-1,2,4-triazol-3-yl)benzimidazol-1-yl]quinoline], for which the IC50 was 4 nM.

For the compound `Cc1nc2c(-c3nnc[nH]3)cc(-c3ccnc(C#N)c3)cc2n1-c1ccnc2cccc(F)c12` (single isomer, unassigned) [Example 131, 4-(1-(5-fluoroquinolin-4-yl)-2-methyl-4-(4H-1,2,4-triazol-3-yl)-1H-benzo[d]imidazol-6-yl)picolinonitrile], the IC50 came out at 2 nM.

Consider `CCc1nc2c(-c3nnc[nH]3)cc(-c3ccnc(N)c3F)cc2n1-c1ccnc2c(F)ccc(F)c12` [Example 95, 4-[3-(5,8-difluoroquinolin-4-yl)-2-ethyl-7-(4H-1,2,4-triazol-3-yl)benzimidazol-5-yl]-3-fluoropyridin-2-amine], for which the half-maximal inhibitory concentration (IC50) turned out to be 5 nM.

Consider `Cc1nc2c(-c3nnc[nH]3)cc(-c3ccnc(N)c3)cc2n1-c1ccnc2c(Cl)ccc(F)c12` [Example 51, 4-[3-(8-chloro-5-fluoroquinolin-4-yl)-2-methyl-7-(4H-1,2,4-triazol-3-yl)benzimidazol-5-yl]pyridin-2-amine], for which the IC50 was found to be 3 nM.

As for `Cc1cc(-c2cc(-c3nnc[nH]3)c3nc(C)n(-c4ccnc5c(F)ccc(F)c45)c3c2)ccn1` [Example 45, 5,8-difluoro-4-[2-methyl-6-(2-methylpyridin-4-yl)-4-(4H-1,2,4-triazol-3-yl)benzimidazol-1-yl]quinoline], the half-inhibitory concentration (IC50) is 8 nM.

In the case of `Cc1nc2c(-c3nnc[nH]3)cc(-c3ccnc(C#N)c3)cc2n1-c1ccnc2cccc(Cl)c12` (single isomer, unassigned) [Example 125, 4-(1-(5-chloroquinolin-4-yl)-2-methyl-4-(4H-1,2,4-triazol-3-yl)-1H-benzo[d]imidazol-6-yl)picolinonitrile], the IC50 turned out to be 110 nM.

`Cc1nc2c(-c3nnc[nH]3)cc(-c3ccnc(C#N)c3)cc2n1-c1ccnc2c(Cl)ccc(Cl)c12` (single isomer, unassigned) [Example 121, 4-(1-(5,8-dichloroquinolin-4-yl)-2-methyl-4-(4H-1,2,4-triazol-3-yl)-1H-benzo[d]imidazol-6-yl)picolinonitrile]: the IC50 worked out at 1 nM.

As for `Cc1nc2c(-c3nnc[nH]3)cc(-c3ccnc(N)c3F)cc2n1-c1ccnc2cccc(F)c12` [Example 93, 3-fluoro-4-[3-(5-fluoroquinolin-4-yl)-2-methyl-7-(4H-1,2,4-triazol-3-yl)benzimidazol-5-yl]pyridin-2-amine], the IC50 was 5 nM.

As a reminder, the IC50 is the concentration needed to halve the response being measured.
